Measurements reported in US9938261B2, “Heterocyclic compounds and methods of use thereof” (AMBIT BIOSCIENCES CORPORATION, priority 2011, dated 2018).

Legend:
[1] = molecular target: kinase panel containing either 386 or 392 distinct kinases; test: Kinase selectivity score S10 from competition binding panel; conditions: 10 μM, panel of 386 or 392 distinct kinases
Outline: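 Compounds at 10 μM competed against immobilised affinity ligands for T7 phage-fused or HEK-293-expressed DNA-tagged kinases, 1 h at room temperature; bound kinase eluted and quantified by qPCR. S10 = fraction of distinct non-mutant kinases with percent of DMSO control below 10.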

[2] = molecular target: T1, FLT3 (Homo sapiens, UniProt P36888); test: Competition binding assay, FLT3 Kd; conditions: competition binding
T1 construct: made in house
T1 sequence (P36888 27-993): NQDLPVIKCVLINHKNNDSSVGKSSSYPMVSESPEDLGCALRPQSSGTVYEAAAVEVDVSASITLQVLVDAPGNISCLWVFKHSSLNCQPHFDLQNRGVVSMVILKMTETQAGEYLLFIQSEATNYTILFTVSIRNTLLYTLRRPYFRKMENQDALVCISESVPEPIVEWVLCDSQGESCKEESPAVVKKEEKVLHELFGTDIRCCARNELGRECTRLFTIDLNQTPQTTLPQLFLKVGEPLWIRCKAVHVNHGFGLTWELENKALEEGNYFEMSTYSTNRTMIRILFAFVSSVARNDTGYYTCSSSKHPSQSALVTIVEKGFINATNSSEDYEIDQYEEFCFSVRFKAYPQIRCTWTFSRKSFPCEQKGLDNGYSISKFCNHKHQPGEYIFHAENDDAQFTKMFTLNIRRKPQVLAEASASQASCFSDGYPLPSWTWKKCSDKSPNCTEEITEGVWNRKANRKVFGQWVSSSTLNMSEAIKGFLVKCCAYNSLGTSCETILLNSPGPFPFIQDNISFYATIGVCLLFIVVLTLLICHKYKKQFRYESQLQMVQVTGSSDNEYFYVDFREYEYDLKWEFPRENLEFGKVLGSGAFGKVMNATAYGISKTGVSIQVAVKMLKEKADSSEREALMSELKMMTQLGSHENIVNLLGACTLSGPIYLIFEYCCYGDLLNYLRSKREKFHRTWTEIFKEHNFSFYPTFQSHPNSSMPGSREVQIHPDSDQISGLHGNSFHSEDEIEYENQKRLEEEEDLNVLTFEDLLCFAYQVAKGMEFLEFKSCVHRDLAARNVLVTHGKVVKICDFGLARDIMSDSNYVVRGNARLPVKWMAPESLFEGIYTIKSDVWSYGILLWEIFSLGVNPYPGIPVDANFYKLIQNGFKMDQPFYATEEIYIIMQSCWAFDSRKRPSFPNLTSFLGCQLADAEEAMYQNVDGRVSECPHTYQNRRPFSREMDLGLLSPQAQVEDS
Outline: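 Kinases, either T7 phage fusions or HEK-293-expressed and DNA-tagged, competed with test compounds for immobilized biotinylated affinity ligand on streptavidin beads in binding buffer (20% SeaBlock, 0.17×PBS, 0.05% Tween 20, 6 mM DTT). After 1 hour at room temperature, bead-bound kinase was eluted and quantified by qPCR; Kd from eleven-point threefold dilutions.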

| Structure (SMILES) | Kinase specificity S(10) [1] | Kd [2] |
| --- | --- | --- |
| O[C@@H]1CCCC[C@H]1Nc1nc2ccc(Cn3cnc4cc(C(F)(F)F)ccc43)cc2s1 [Example 130, (1R,2R)-2-((6-((5-(trifluoromethyl)-1H-benzo[d]imidazol-1-yl)methyl)benzo[d]thiazol-2-yl)amino)cyclohexanol] | A (A≤0.01) | 1000 to 5000 nM |
| O[C@@H]1CCCC[C@H]1Nc1nc2ccc(Cc3cnc4cccnn34)cc2s1 [Example 131, (1R,2R)-2-((6-(imidazo[1,2-b]pyridazin-3-ylmethyl)benzo[d]thiazol-2-yl)amino)cyclohexanol] | B (0.01<B≤0.02) | ≤ 200 nM |
| COCCOc1ccn2c(Cc3ccc4nc(N[C@@H]5CCCC[C@H]5O)sc4c3)cnc2c1 [Example 153, (1R,2R)-2-((6-((7-(2-methoxyethoxy)imidazo[1,2-a]pyridin-3-yl)methyl)benzo[d]thiazol-2-yl)amino)cyclohexanol] | A (A≤0.01) | 1000 to 5000 nM |
| N#Cc1ccc2ncn(Cc3ccc4nc(N[C@@H]5CCCC[C@H]5O)sc4c3)c2c1 [Example 111, 1-((2-(((1R,2R)-2-hydroxycyclohexyl)amino)benzo[d]thiazol-6-yl)methyl)-1H-benzo[d]imidazole-6-carbonitrile] | A (A≤0.01) | 1000 to 5000 nM |
| Cc1cc2ncn(Cc3ccc4nc(N[C@@H]5CCCC[C@H]5O)sc4c3)c2cc1C [Example 119, (1R,2R)-2-((6-((5,6-dimethyl-1H-benzo[d]imidazol-1-yl)methyl)benzo[d]thiazol-2-yl)amino)cyclohexanol] | A (A≤0.01) | 200 to 1000 nM |
| OCc1ccc2ncc(Cc3ccc4nc(N[C@@H]5CCCC[C@H]5O)sc4c3)n2n1 [Example 144, (1R,2R)-2-((6-((6-(hydroxymethyl)imidazo[1,2-b]pyridazin-3-yl)methyl)benzo[d]thiazol-2-yl)amino)cyclohexanol] | B (0.01<B≤0.02) | 200 to 1000 nM |
| O[C@@H]1CCCC[C@H]1Nc1nc2ccc(Cn3cnc4cc(I)cnc43)cc2s1 [Example 146, (1R,2R)-2-((6-((6-iodo-3H-imidazo[4,5-b]pyridin-3-yl)methyl)benzo[d]thiazol-2-yl)amino)cyclohexanol] | B (0.01<B≤0.02) | 200 to 1000 nM |
| OC[C@@H]1CCCC[C@H]1Nc1nc2ccc(Cn3cnc4cc(Br)cnc43)cc2s1 [Example 133, ((1R,2R)-2-((6-((6-bromo-3H-imidazo[4,5-b]pyridin-3-yl)methyl)benzo[d]thiazol-2-yl)amino)cyclohexyl)methanol] | A (A≤0.01) | 1000 to 5000 nM |

More lines, now with the values ahead:

| Kinase specificity S(10) [1] | Kd [2] | Structure (SMILES) |
| --- | --- | --- |
| A (A≤0.01) | 200 to 1000 nM | Cn1nnc(-c2ccc3c(c2)ncn3Cc2ccc3nc(N[C@@H]4CCC[C@@H](O)[C@H]4O)sc3c2)n1 [Example 236, (1R,2S,3R)-3-((6-((5-(2-methyl-2H-tetrazol-5-yl)-1H-benzo[d]imidazol-1-yl)methyl)benzo[d]thiazol-2-yl)amino)cyclohexane-1,2-diol] |
| A (A≤0.01) | 200 to 1000 nM | O[C@@H]1[C@H](O)CCC[C@H]1Nc1nc2ccc(Cn3cnc4cc(OC5COC5)ccc43)cc2s1 [Example 233, (1R,2S,3R)-3-((6-((5-(oxetan-3-yloxy)-1H-benzo[d]imidazol-1-yl)methyl)benzo[d]thiazol-2-yl)amino)cyclohexane-1,2-diol] |
| A (A≤0.01) | 1000 to 5000 nM | O[C@@H]1CCCC[C@H]1Nc1nc2c(Cl)cc(Cc3cnc4ccc(N5CCOCC5)nn34)cc2s1 [Example 156, (1R,2R)-2-((4-chloro-6-((6-morpholinoimidazo[1,2-b]pyridazin-3-yl)methyl)benzo[d]thiazol-2-yl)amino)cyclohexanol] |
| A (A≤0.01) | 1000 to 5000 nM | O[C@@H]1CCCC[C@H]1Nc1nc2ccc(Cn3cnc4cccnc43)c(F)c2s1 [Example 164, (1R,2R)-2-((6-((3H-imidazo[4,5-b]pyridin-3-yl)methyl)-7-fluorobenzo[d]thiazol-2-yl)amino)cyclohexanol] |
